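Assay format: 96-well plates, 48-hour exposure. GI50: concentration for 50% inhibition of growth. At the TGI there is no net growth.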
Legend:
Assay in all cases: growth of human tumour cells (NCI), 48 h
HOP-92 NSCLC = system: HOP-92 NSCLC
SNB-75 CNS = system: SNB-75 CNS
OVCAR-8 ovarian = system: OVCAR-8 ovarian
ACHN renal = system: ACHN renal
NCI-H226 lung = system: NCI-H226 lung
BT-549 breast = system: BT-549 breast
SF-295 CNS = system: SF-295 CNS
MCF7 breast = system: MCF7 breast
EKVX NSCLC = system: EKVX NSCLC
HOP-62 NSCLC = system: HOP-62 NSCLC
OVCAR-3 ovarian = system: OVCAR-3 ovarian
M14 melanoma = system: M14 melanoma
OVCAR-4 ovarian = system: OVCAR-4 ovarian
MDA-MB-231 breast = system: MDA-MB-231 breast
SK-OV-3 ovarian = system: SK-OV-3 ovarian
OVCAR-5 ovarian = system: OVCAR-5 ovarian
786-0 renal = system: 786-0 renal
UO-31 renal = system: UO-31 renal
SW-620 colon = system: SW-620 colon
U251 CNS = system: U251 CNS
MALME-3M melanoma = system: MALME-3M melanoma
SR leukemia = system: SR leukemia
LOX IMVI melanoma = system: LOX IMVI melanoma
CCRF-CEM leukemia = system: CCRF-CEM leukemia
HCC-2998 colon = system: HCC-2998 colon
HCT-15 colon = system: HCT-15 colon
RXF 393 renal = system: RXF 393 renal
KM12 colon = system: KM12 colon
SN12C renal = system: SN12C renal

What does the source list for `CC(=O)Nc1cccc(Nc2nc(NCc3ccccc3)c3ccccc3n2)c1`?
GI50 (HOP-92 NSCLC): 1.52 µM; TGI (HOP-92 NSCLC): 7.85 µM; GI50 (SNB-75 CNS): 1.42 µM; TGI (SNB-75 CNS): 3.51 µM; GI50 (OVCAR-8 ovarian): 2.25 µM; TGI (OVCAR-8 ovarian): 5.17 µM; GI50 (ACHN renal): 1.77 µM; TGI (ACHN renal): 3.66 µM; GI50 (NCI-H226 lung): 1.69 µM; TGI (NCI-H226 lung): 4.15 µM; GI50 (BT-549 breast): > 10 µM; TGI (BT-549 breast): > 10 µM; GI50 (SF-295 CNS): 1.66 µM; TGI (SF-295 CNS): 3.05 µM; GI50 (MCF7 breast): 1.61 µM; TGI (MCF7 breast): 3.06 µM; GI50 (EKVX NSCLC): 4.01 µM; TGI (EKVX NSCLC): > 10 µM; GI50 (HOP-62 NSCLC): 3.46 µM; TGI (HOP-62 NSCLC): > 10 µM; GI50 (OVCAR-3 ovarian): 1.74 µM; TGI (OVCAR-3 ovarian): 3.3 µM; GI50 (M14 melanoma): 1.66 µM; TGI (M14 melanoma): 3.11 µM; GI50 (OVCAR-4 ovarian): 1.79 µM; TGI (OVCAR-4 ovarian): 3.66 µM; GI50 (MDA-MB-231 breast): 1.69 µM; TGI (MDA-MB-231 breast): 3.24 µM; GI50 (SK-OV-3 ovarian): > 10 µM; TGI (SK-OV-3 ovarian): > 10 µM; GI50 (OVCAR-5 ovarian): 2.08 µM; TGI (OVCAR-5 ovarian): 5.67 µM; GI50 (786-0 renal): 1.83 µM; TGI (786-0 renal): 3.87 µM; GI50 (UO-31 renal): 1.73 µM; TGI (UO-31 renal): 5.41 µM; GI50 (SW-620 colon): 1.83 µM; TGI (SW-620 colon): 3.37 µM; GI50 (U251 CNS): 1.87 µM; TGI (U251 CNS): 3.93 µM; GI50 (MALME-3M melanoma): 1.48 µM; TGI (MALME-3M melanoma): 2.81 µM; GI50 (SR leukemia): 4.05 µM; TGI (SR leukemia): > 10 µM; GI50 (LOX IMVI melanoma): 1.6 µM; TGI (LOX IMVI melanoma): 2.98 µM; GI50 (CCRF-CEM leukemia): 2.81 µM; TGI (CCRF-CEM leukemia): 7.87 µM; GI50 (HCC-2998 colon): 1.68 µM; TGI (HCC-2998 colon): 3.22 µM; GI50 (HCT-15 colon): 1.76 µM; TGI (HCT-15 colon): 3.45 µM; GI50 (RXF 393 renal): 1.56 µM; TGI (RXF 393 renal): 3.22 µM; GI50 (KM12 colon): 2.11 µM; TGI (KM12 colon): 4.91 µM; GI50 (SN12C renal): > 10 µM; TGI (SN12C renal): > 10 µM

From PubChem BioAssay (NCI)
